Results as given in US11555036B2, “FGFR4 inhibitor, preparation method therefor and pharmaceutical use thereof” (Abbisko Therapeutics Co., Ltd., priority 2016, dated 2023).

How the values were obtained:
[1] = test system: Huh7 hepatocellular carcinoma cells; assay: FGFR4 cell proliferation experiment, Cell Titer Glo (CTG); type: cell-based; settings: Homo sapiens, Huh-7, 72 h, HuH-7 cells, 3 days; for IC50: concentration leading to absolute half growth inhibition; for EC50: concentration leading to half maximal growth inhibition
Procedure, shortened: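 Cells treated with 5-fold serial dilutions starting at 10 μM for 3 days at 37° C, 5% CO2. Proliferation/survival quantified as cellular ATP by CellTiter-Glo luminescence.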

FGFR4 = FGFR4 (Homo sapiens, UniProt P22455); assay: FGFR4 Caliper Assay (in vitro biochemical kinase analysis of FGFR4); settings: read-out: Enzymatic activity FGFR4 IC50
FGFR4, sequence (P22455 22-802): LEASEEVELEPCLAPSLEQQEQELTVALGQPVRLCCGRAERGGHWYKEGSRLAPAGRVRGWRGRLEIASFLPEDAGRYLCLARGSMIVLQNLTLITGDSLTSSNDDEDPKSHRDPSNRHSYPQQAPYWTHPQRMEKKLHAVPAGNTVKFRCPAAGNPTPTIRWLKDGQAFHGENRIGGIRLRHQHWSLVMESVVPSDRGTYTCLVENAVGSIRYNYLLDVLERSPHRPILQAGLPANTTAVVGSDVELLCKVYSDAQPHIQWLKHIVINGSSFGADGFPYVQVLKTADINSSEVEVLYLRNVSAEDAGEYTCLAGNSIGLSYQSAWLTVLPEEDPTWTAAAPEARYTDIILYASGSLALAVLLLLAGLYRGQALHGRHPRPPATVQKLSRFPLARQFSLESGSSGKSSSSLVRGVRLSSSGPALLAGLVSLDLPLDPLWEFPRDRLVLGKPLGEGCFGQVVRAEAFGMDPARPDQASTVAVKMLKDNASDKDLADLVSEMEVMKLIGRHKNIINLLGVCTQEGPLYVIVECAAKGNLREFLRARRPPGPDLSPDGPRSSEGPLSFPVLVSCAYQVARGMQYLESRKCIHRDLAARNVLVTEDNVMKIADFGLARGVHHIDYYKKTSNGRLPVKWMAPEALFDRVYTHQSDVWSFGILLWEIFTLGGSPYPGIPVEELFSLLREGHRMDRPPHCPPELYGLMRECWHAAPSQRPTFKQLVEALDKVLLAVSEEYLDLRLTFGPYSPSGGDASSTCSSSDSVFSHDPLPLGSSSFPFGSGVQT
Procedure, shortened: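 Kinase reaction at 30° C for 40 min in 50 mM HEPES pH 7.5, 16 mM MgCl2, 1 mM DTT, 0.6% DMSO, stopped with EDTA. Phosphorylated and unphosphorylated fluorescent peptides separated by Caliper microfluidic mobility shift. IC50 by non-linear regression of percent inhibition.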

| IC50 [1] | EC50 [1] | IC50 (FGFR4) | SMILES |
| --- | --- | --- | --- |
| 11.8 nM | 9.5 nM | 7.5 nM | C=CC(=O)N[C@H]1CCOC[C@H]1Nc1ncc2cc(-c3c(F)c(OC)cc(OC)c3F)nc(N3CCC(OC)CC3)c2n1 [Example 795, N-((3S,4S)-3-((6-(2,6-difluoro-3,5-dimethoxyphenyl)-8-(4-methoxy-piperidin-1-yl)pyrido[3,4-d]pyrimidin-2-yl)amino)tetrahydro-2H-pyran-4-yl)acrylamide] |
| 62.6 nM | 23.8 nM | 24 nM | C=CC(=O)Nc1cn(C)nc1Nc1ncc2cc(-c3c(Cl)c(OC)cc(OC)c3Cl)nc(NCC3CC3)c2n1 [Example 76, N-(3-((8-((cyclopropylmethyl)amino)-6-(2,6-dichloro-3,5-dimethoxyphenyl)pyrido[3,4-d]pyrimidin-2-yl)amino)-1-methyl-1H-pyrazol-4-yl)acrylamide] |
| 27.9 nM | 19.8 nM | 8.3 nM | [2H]C([2H])([2H])Nc1nc(-c2c(Cl)c(OC([2H])([2H])[2H])cc(OC([2H])([2H])[2H])c2Cl)cc2cnc(N[C@@H]3COC[C@@H]3NC(=O)C=C)nc12 [Example 766, N-((3R,4S)-4-((6-(2,6-dichloro-3,5-bis(methoxy-d3)phenyl)-8-((methyl-d3)amino)pyrido[3,4-d]pyrimidin-2-yl)a-mino)tetrahydrofuran-3-yl)acrylamide] |
| 4.9 nM | 3.7 nM | 4.9 nM | C=CC(=O)N[C@H]1COC[C@H]1Nc1ncc2cc(-c3c(Cl)c(OC)cc(OC)c3Cl)nc(N3CC(C)(O)C3)c2n1 [Example 664, N-((3R,4S)-4-((6-(2,6-dichloro-3,5-dimethoxyphenyl)-8-(3-hydroxy-3-meth-ylazetidin-1-yl)pyrido[3,4-d]pyrimi-din-2-yl)amino)tetrahydrofuran-3-yl)acrylamide] |
| 60.4 nM | 49.4 nM | 7 nM | C=CC(=O)N[C@H]1COC[C@H]1Nc1ncc2cc(-c3c(F)c(OC)cc(OC)c3F)nc(NC)c2n1 [Example 764, N-((3R,4S)-4-((6-(2,6-difluoro-3,5-dimethoxyphenyl)-8-(methylamino)py-rido[3,4-d]pyrimidin-2-yl)amino)tetra-hydrofuran-3-yl)acrylamide] |
| 4 nM | 2.6 nM | 2.9 nM | C=CC(=O)N[C@H]1COC[C@H]1Nc1ncc2cc(-c3c(Cl)c(OC)cc(OC)c3Cl)nc(-c3cnn(C)c3)c2n1 [Example 629, N-((3R,4S)-4-((6-(2,6-dichloro-3,5-di-methoxyphenyl)-8-(1-methyl-1H-pyrazol-4-yl)pyrido[3,4-d]pyrimidin-2-yl)amino)tetrahydrofuran-3-yl)acryl-amide] |
| 11.8 nM | 9.9 nM | 5.7 nM | C=CC(=O)N[C@H]1COC[C@H]1Nc1ncc2cc(-c3c(Cl)c(OC)cc(OC)c3Cl)nc(N3CC(C)(OC)C3)c2n1 [Example 665, N-((3R,4S)-4-((6-(2,6-dichloro-3,5-di-methoxyphenyl)-8-(3-methoxy-3-methylazetidin-1-yl)pyrido[3,4-d]py-rimidin-2-yl)amino)tetrahydrofuran-3-yl)acrylamide] |
| 53.3 nM | 20.3 nM | 42.2 nM | C=CC(=O)N[C@H]1COC[C@H]1Nc1ncc2cc(-c3c(Cl)c(OC)cc(OC)c3Cl)nc(NC3CC(F)(F)C3)c2n1 [Example 452, N-((3R,4S)-4-((6-(2,6-dichloro-3,5-di-methoxyphenyl)-8-((3,3-difluorocyclo-butyl)amino)pyrido[3,4-d]pyrimidin-2-yl)amino)tetrahydrofuran-3-yl) acrylamide] |
| 8.4 nM | 6.4 nM | 3.7 nM | C=CC(=O)N[C@H]1CCOC[C@H]1Nc1ncc2cc(-c3c(F)c(OC)cc(OC)c3F)nc(N3CC(F)(F)C3)c2n1 [Example 791, N-((3S,4S)-3-((6-(2,6-difluoro-3,5-dimethoxyphenyl)-8-(3,3-difluoroazet-idin-1-yl)pyrido[3,4-d]pyrimidin-2-yl)amino)tetrahydro-2H-pyran-4-yl)acrylamide] |
| 32.3 nM | 25.5 nM | 7.9 nM | [2H]C([2H])([2H])Nc1nc(-c2c(Cl)c(OC)cc(OC)c2Cl)cc2cnc(N[C@@H]3COC[C@@H]3NC(=O)C=C)nc12 [Example 771, N-((3R,4S)-4-((6-(2,6-dichloro-3,5-dimethoxyphenyl)-8-((methyl-d3)ami-no)pyrido[3,4-d]pyrimidin-2-yl)ami-no)tetrahydrofuran-3-yl)acrylamide] |
| 26.1 nM | 19.3 nM | 7.6 nM | C=CC(=O)N[C@H]1COC[C@H]1Nc1ncc2cc(-c3c(Cl)c(OC)cc(OC)c3Cl)nc(NC)c2n1 [Example 433, N-((3R,4S)-4-((6-(2,6-dichloro-3,5-dimethoxyphenyl)-8-(methylamino)pyrido[3,4-d]pyrimidin-2-yl)amino)tetrahydrofuran-3-yl)acrylamide] |

| SMILES | IC50 [1] | EC50 [1] | IC50 (FGFR4) |
| --- | --- | --- | --- |
| C=CC(=O)N[C@H]1COC[C@H]1Nc1ncc2cc(-c3c(Cl)c(OC)cc(OC)c3Cl)nc(N3CC4CC(C3)O4)c2n1 [Example 762, N-((3R,4S)-4-((8-(6-oxa-3-aza-bicyclo[3.1.1]heptan-3-yl)-6-(2,6-di-chloro-3,5-dimethoxyphenyl)pyrido[3,4-d]pyrimidin-2-yl)amino)tetrahydro-furan-3-yl)acrylamide] | 4.2 nM | 3.2 nM | 5.2 nM |
